11 molecules from PubChem BioAssay (NCI) can be followed below.

Assay in all cases: NCI-60 cell line screen, 48 h
Assay [1] deals with 786-0 renal.
Assay [2] deals with ACHN renal.
In assay [3] the test system is BT-549 breast.
Assay [4] has as its system HOP-62 NSCLC.
Assay [5] has as its system HOP-92 NSCLC.
The subject of assay [6] is HT29 colon.
For assay [7], the system named is MDA-N.
Assay [8] concerns OVCAR-3 ovarian.
The test system of assay [9] is SF-295 CNS.
Assay [10] deals with SN12C renal.

Where “and” joins values, the source holds several entries; their conditions need not be identical. Equal entries are not always repeated.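 All cell lines were grown in 96-well plates and treated with compound for 48 hours. Abbreviation: GI50, concentration required for 50% inhibition of growth. Definition used: TGI = concentration required for complete inhibition of growth.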

With `CC(=O)Oc1ccc2cc(Oc3ccc(Cl)cc3)c(=O)oc2c1`, the TGI in [1] is above 100 µM; in [2], above 100 µM; in assay [3], 83.8 µM; in assay [4], above 100 µM; in [5], above 100 µM; in [6], above 100 µM. Also, the TGI in assay [7] is 78.8 µM; in [8], 57.8 µM; in assay [9] it was 99 µM; in assay [10], above 100 µM.

Turning to `CC1(C)CC(=O)C(/C=N/c2nc(-c3ccc(Br)cc3)cs2)=C(O)C1`, the TGI was above 100 µM in assay [1]; above 100 µM in [2]; 37.8 µM in assay [3]; above 100 µM in [4]; above 100 µM in assay [5]; above 100 µM in assay [6]. Further, the TGI is above 100 µM in [7], 62.1 µM in assay [8], above 100 µM in assay [9] and above 100 µM in assay [10].

Take `N#Cc1c(N)c(-c2ccc(Cl)cc2)c(F)c2ccccc12`: the TGI in assay [1] is above 100 µM; in assay [2] it was above 100 µM; in [3], above 100 µM; in [4], above 100 µM; in [5] it was 59.4 µM; in assay [6] it was above 100 µM. Also, the TGI in assay [7], in assay [8], in [9] and in assay [10] was above 100 µM in each case.

As for `O=C(Cn1c2ccc(Br)cc2c2nc3ccccc3nc21)NC1CCCCC1`, the TGI in [1], in [2], in assay [3], in assay [4], in assay [5] and in assay [6] was above 100 µM throughout. In addition, the TGI in [7], in [8], in assay [9] and in [10] was above 100 µM each time.

On to `NC(N)=N/N=C(\c1ccc(Cl)cc1)C1CC1`, for which the TGI in assay [1] is 32.5 µM; in [2], 57.7 µM; in assay [3] it was 49.6 µM; in [4], 37.7 µM; in assay [5], 62.6 µM; in assay [6], 32.2 µM. Also, the TGI in assay [7] amounted to 30.8 µM; in assay [8], 50.4 µM; in assay [9], 48.3 µM; in assay [10], 42.3 µM.

As to `O=C1NC(=O)/C(=C\c2ccncc2)N1`, the TGI in [1], in assay [2], in [3], in assay [4], in [5] and in [6] was above 100 µM throughout. Further, the TGI in assay [7], in [8], in [9] and in assay [10] was above 100 µM throughout.

`COc1cc2c3c(n(CCCNCCO)c(=O)c2cc1OC)-c1cc2c(cc1C3=O)OCO2`: the TGI in [1] is 0.118 µM and 0.0216 µM; in assay [2], 0.176 µM and 0.369 µM; in [3] it was 7.97 µM; in [5] it was 2.77 µM and 3.56 µM; in [6], 0.589 µM; in [8], 5.3 µM. For the same molecule, the TGI in [9] was 1.29 µM and 4.27 µM; in assay [10], 1.19 µM. In addition, the GI50 is 0.0127 µM and 0.0979 µM in assay [4]; 0.831 µM and 0.102 µM in assay [5]; 0.0502 µM in [6]; 2.3 µM in [7]; below 0.0188 µM in [9]; below 0.0119 µM in [10].

On to `O=C1c2cc([N+](=O)[O-])ccc2NC2C(O)c3ccccc3N12` (stereo not drawn), for which the TGI in assay [1] is 64.4 µM; in assay [2], 80.7 µM; in assay [3] it was 61.4 µM; in assay [4] it was above 100 µM; in assay [5], 53.6 µM; in assay [6] it was above 100 µM. Besides, the TGI in assay [7], in assay [8], in [9] and in [10] was above 100 µM throughout.

Consider `CCCCCCCCCCCCCCCCOCC(CC(F)(F)P(=O)(O)O)OC(C)=O` (stereo not drawn), for which the TGI in [1], in [2], in [3], in [4], in [5] and in assay [6] was above 50 µM throughout. Further, the TGI in [7], in assay [8], in assay [9] and in assay [10] was above 50 µM in each case.

Regarding `Oc1ccc(-c2c3c(nc4c2CCc2ccc(Br)cc2-4)-c2cc(Br)ccc2CC3)cc1`, the TGI amounted to 37.4 µM in [1]; 45.2 µM in [2]; 43.1 µM in assay [3]; 33.6 µM in assay [4]; 31.1 µM in [5]; 40.7 µM in [7]. In addition, the figures for the TGI in assay [8], in [9] and in assay [10] were 29.5 µM, 31.7 µM and 43.6 µM, respectively.

Consider `Cc1cnc(Cl)nc1C(C#N)c1nc2ccccc2n1C` (stereo not drawn), for which the TGI in assay [1], in assay [2], in assay [3], in assay [4], in assay [5] and in [6] was above 100 µM each time. Besides, the TGI in assay [7], in assay [8], in assay [9] and in [10] was above 100 µM in each case.
